Data on 17 molecules can be found in US8614206B2 (Genentech, Inc., priority 2011, dated 2013).

The structures appear in SMILES notation. Read-outs that look alike come from different tables or passages of the source.

The term Ki denotes the dissociation constant of the complex between target and ligand, obtained from inhibition or displacement. A low value points to a stronger hold on the target. Usually IC50 stands for the midpoint of a concentration-inhibition curve. In general, EC50 refers to the midpoint of the concentration-response curve.

One assay addresses PIM1 (Homo sapiens (Human), UniProt P11309). Briefly: Pim kinase inhibition, PIM1 LC3K (Example 901). Format: biochemical.
The test system of a further assay is BaF3 parental cells. Kind of assay: In vitro cell proliferation, BaF3 parental line + IL3 (CellTiter-Glo). Conditions: Mus musculus, BaF3, BaF3 parental cells with IL-3, incubated overnight. Format: cell-based, murine. For orientation: Cellular ATP, detected with luciferase, serves as a proxy for viable cell number.
Assay [1] has as its system MM1.S (multiple myeloma) cells. Kind of assay: In vitro cell proliferation, MM1.S multiple myeloma cells (CellTiter-Glo, ATP). Format: cell-based. Conditions: Homo sapiens, MM1.S, 72 h, read-out: Prolif MM1S ATP (EC50). An outline of the steps: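 BaF3 parental cells (medium with 2 ng/mL mIL-3) seeded at 2 k/well and MM1.S at 10 k/well, then exposed to test compound at 37° C, 5% CO2: BaF3 overnight, MM1.S for 72 hours. Viability read by CellTiter-Glo; IC50/EC50 values calculated.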

For the next assay, the system named is BaF3 PIM1 cells. Briefly: cells. To be noted: Mus musculus.
[2] abbreviates: read-out: Prolif BaF3 + IL3 (IC50).
[3] abbreviates: BaF3, read-out: Prolif BaF3_PIM1 (IC50), BaF3 PIM1 cells, incubated overnight.
Setting [4] is: read-out: Prolif BaF3 IL3 (IC50).
The mark [5] stands for this setting: BaF3, read-out: Prolif BaF3 PIM1 (IC50), BaF3 PIM1 cells, incubated overnight.

Sequence of PIM1 (P11309 whole entry): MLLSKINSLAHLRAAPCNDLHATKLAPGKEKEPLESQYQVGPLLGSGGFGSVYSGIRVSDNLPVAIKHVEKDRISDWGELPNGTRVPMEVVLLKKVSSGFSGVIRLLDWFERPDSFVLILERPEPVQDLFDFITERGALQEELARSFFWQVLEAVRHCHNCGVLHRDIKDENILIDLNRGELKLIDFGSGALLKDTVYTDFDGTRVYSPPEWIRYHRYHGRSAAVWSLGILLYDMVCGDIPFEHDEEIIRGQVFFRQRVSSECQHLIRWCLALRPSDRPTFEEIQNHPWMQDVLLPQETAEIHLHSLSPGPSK
Method for BaF3 PIM1 cells: (§1) BaF3 parental line was obtained from the DSMZ repository. BaF3 lines transfected with PIM 1 or PIM2 were generated. Mouse IL-3 was purchased from R&D Systems. G418 was purchased from Clontech. Media for BaF3 parental line contained RPMI, 10% FBS, 2 mM L-Glutamine, 2 ng/mL mIL-3. Media for BaF3 PIM1 & 2 lines contained RPMI, 10% FBS, 2 mM L-Glutamine, 250 μg/mL.
(§2) BaF3, a murine interleukin-3 dependent pro-B cell line, parental cells, BaF3 PIM1 cells, BaF3 PIM2 cells, and MM1.S (multiple myeloma) cells were seeded at 2 k/well, 5 k/well, 5 k/well, and 10 k/well respectively, in a 384-well plate, at 45 μL/well. Test compound was added at 5 μL/well. BaF3 cells (parental and transfected) were incubated overnight, while MM1.S cells were incubated for 72 hours at 37° C., 5% CO2. CELL TITER GLO® Reagent (Promega) was added at 50 μL/well, the plates were incubated for 30 minutes, and their luminescence read on an HT Analyst. IC50/EC50 values for the test compound were calculated.
Method for BaF3 parental cells: as §1, §2

Molecule `Cc1c(-c2nc(C(=O)Nc3cnn(C)c3N3CC[C@@H](N)CC(F)(F)C3)c(N)s2)cnn1C` [Example 463, 5-amino-N-[5-[(5R)-5-amino-3,3-difluoro-azepan-1-yl]-1-methyl-pyrazol-4-yl]-2-(1,5-dimethylpyrazol-4-yl)thiazole-4-carboxamide] had an inhibition constant (Ki) at PIM1 of 0.018 nM. Moreover, the IC50 in the assay on BaF3 parental cells (setting [2]) is over 25000 nM; with BaF3 PIM1 cells (setting [3]), 58.4 nM. In assay [1], the EC50 is 108 nM.
The like results for `[2H]C([2H])([2H])OC1CCN(c2c(NC(=O)c3nc(-c4ccccc4F)sc3N)cnn2C)CCC1N` (centres unmarked) [Example 491, 5-amino-N-[5-[4-amino-5-(trideuteriomethoxy)azepan-1-yl]-1-methyl-pyrazol-4-yl]-2-(2-fluorophenyl)thiazole-4-carboxamide] were, in that order, 0.055 nM, over 25000 nM, 44.9 nM and 67.9 nM.
For `Nc1sc(-c2cc(F)ccc2F)nc1C(=O)Nc1cnn(CC(F)F)c1N1CCC[C@@H](N)CC1` [Example 161, (R)-5-amino-N-(5-(4-aminoazepan-1-yl)-1-(2,2-difluoroethyl)-1H-pyrazol-4-yl)-2-(2,5-difluorophenyl)thiazole-4-carboxamide], the affinity on PIM1, expressed as Ki, was 0.12 nM. Further, the IC50 with BaF3 parental cells (setting [4]) came to 6000 nM; in the assay on BaF3 PIM1 cells (setting [5]), 404 nM. Besides, the EC50 in assay [1] worked out at 160 nM.
Turning to `COC1CCN(c2c(NC(=O)c3nc(-c4cc(F)ccc4F)sc3N)cnn2C)CCC1N` (centres unmarked) [Example 326, 5-amino-N-[5-(4-amino-5-methoxy-azepan-1-yl)-1-methyl-pyrazol-4-yl]-2-(2,5-difluorophenyl)thiazole-4-carboxamide], the inhibitory constant (Ki) at PIM1 is 0.384 nM. Moreover, the concentration for half-maximal inhibition (IC50) in the assay with BaF3 parental cells (setting [2]) was 17400 nM; in the assay with BaF3 PIM1 cells (setting [3]), 73.5 nM. Also, the EC50 in assay [1] was 185 nM.
The like results for `Nc1sc(-c2c(F)cccc2F)nc1C(=O)Nc1cnn(C2CC2)c1N1CCC(N)C(F)CC1` (single isomer, unassigned) [Example 331, 5-amino-N-[5-(4-amino-5-fluoro-azepan-1-yl)-1-cyclopropyl-pyrazol-4-yl]-2-(2,6-difluorophenyl)thiazole-4-carboxamide] were, in that order, 0.0647 nM, 13400 nM, 152 nM and 167 nM.
Take `COC1(C)CC(N)CCN(c2c(NC(=O)c3nc(-c4ccncc4F)sc3N)cnn2C)C1` (racemic) [Example 441, 5-amino-N-[5-(5-amino-3-methoxy-3-methyl-azepan-1-yl)-1-methyl-pyrazol-4-yl]-2-(3-fluoro-4-pyridyl)thiazole-4-carboxamide]: the Ki on PIM1 came out at 0.027 nM. Moreover, the concentration for half-maximal inhibition (IC50) in the assay on BaF3 parental cells (setting [2]) is over 25000 nM; in the assay on BaF3 PIM1 cells (setting [3]), 13.1 nM. Further, in assay [1], the EC50 worked out at 39.3 nM.
The molecule `CN[C@@H]1CCCN(c2c(NC(=O)c3nc(-c4cc(F)ccc4F)sc3N)cnn2CC(F)F)CC1` [Example 108, (R)-5-Amino-N-(1-(2,2-difluoroethyl)-5-(4-(methylamino)azepan-1-yl)-1H-pyrazol-4-yl)-2-(2,5-difluorophenyl)thiazole-4-carboxamide] showed a Ki at PIM1 of 0.43 nM. In addition, the concentration for half-maximal inhibition (IC50) was determined as 4900 nM in the assay on BaF3 parental cells (setting [4]) and 326 nM in the assay on BaF3 PIM1 cells (setting [5]). Also, in assay [1], the concentration for a half-maximal effect (EC50) is 1400 nM.
Taken in the same sequence, the figures for `Cc1ccc(F)c(-c2nc(C(=O)Nc3cnn(C)c3N3CCC[C@@H](N)CC3)c(N)s2)c1F` [Example 116, (R)-5-amino-N-(5-(4-aminoazepan-1-yl)-1-methyl-1H-pyrazol-4-yl)-2-(2,6-difluoro-3-methylphenyl)thiazole-4-carboxamide] were 0.01 nM, 8100 nM, 63.6 nM and 122 nM.
Take `Nc1sc(-c2c(F)cccc2F)nc1C(=O)Nc1cnn(C2CC2)c1N1CC[C@H](N)CC(F)(F)C1` [Example 344, 5-amino-N-[5-[(5S)-5-amino-3,3-difluoro-azepan-1-yl]-1-cyclopropyl-pyrazol-4-yl]-2-(2,6-difluorophenyl)thiazole-4-carboxamide]: the Ki on PIM1 was 0.01 nM. The results for the half-inhibitory concentration (IC50) with BaF3 parental cells (setting [2]) and with BaF3 PIM1 cells (setting [3]) were 5200 nM and 83.6 nM, respectively. Further, in assay [1], the EC50 was determined as 1200 nM.
The like results for `COC1CCN(c2c(NC(=O)c3nc(-c4ccccc4F)sc3N)cnn2C)CCC1N` (centres unmarked) [Example 324, 5-amino-N-[5-(4-amino-5-methoxy-azepan-1-yl)-1-methyl-pyrazol-4-yl]-2-(2-fluorophenyl)thiazole-4-carboxamide] were, in that order, 0.0694 nM, 19600 nM, 33.6 nM and 32 nM.
At PIM1, `Cn1ncc(NC(=O)c2nc(-c3ccncc3F)sc2N)c1N1CC[C@H](N)[C@@H](F)CC1` [Example 422, 5-amino-N-(5-((4S,5S)-4-amino-5-fluoroazepan-1-yl)-1-methyl-1H-pyrazol-4-yl)-2-(3-fluoropyridin-4-yl)thiazole-4-carboxamide] had an inhibition constant (Ki) of 0.38 nM. The half-inhibitory concentration (IC50) with BaF3 parental cells (setting [2]) is over 25000 nM; in the assay on BaF3 PIM1 cells (setting [3]), 340 nM. Besides, the EC50 in assay [1] was found to be 3800 nM.
Take `CN[C@@H]1CCCN(c2c(NC(=O)c3nc(-c4cc(C)ccc4F)sc3N)cnn2CC(F)F)CC1` [Example 109, (R)-5-Amino-N-(1-(2,2-difluoroethyl)-5-(4-(methylamino)azepan-1-yl)-1H-pyrazol-4-yl)-2-(2-fluoro-5-methylphenyl)thiazole-4-carboxamide]: on PIM1, the Ki was found to be 0.097 nM. The 50% inhibitory concentration (IC50) with BaF3 parental cells (setting [4]) was determined as 5100 nM; with BaF3 PIM1 cells (setting [5]), 778 nM. Besides, the concentration for a half-maximal effect (EC50) in assay [1] came to 3900 nM.
Take `Cn1ncc(NC(=O)c2nc(-c3c(F)cncc3F)sc2N)c1N1CC[C@H](N)[C@@H](F)CC1` (stereo in doubt) [Example 472, 5-amino-N-[5-[(4S,5S)-4-amino-5-fluoro-azepan-1-yl]-1-methyl-pyrazol-4-yl]-2-(3,5-difluoro-4-pyridyl)thiazole-4-carboxamide]: the inhibition constant (Ki) at PIM1 was 0.086 nM. Also, the IC50 in the assay on BaF3 parental cells (setting [2]) stood at 18500 nM; in the assay on BaF3 PIM1 cells (setting [3]), 64.8 nM. Also, the EC50 in assay [1] was 5600 nM.
With `Cn1ncc(NC(=O)c2nc(-c3ccccc3F)sc2N)c1N1CCNC[C@]2(CCO2)C1` (single isomer, unassigned) [Example 480], at PIM1, the Ki was found to be 0.045 nM. The results for the half-inhibitory concentration (IC50) with BaF3 parental cells (setting [2]) and in the assay on BaF3 PIM1 cells (setting [3]) were 7100 nM and 737 nM, respectively. The concentration for a half-maximal effect (EC50) in assay [1] turned out to be 6200 nM.
The like results for `COC1CCN(c2c(NC(=O)c3nc(-c4cc(C)ccc4F)sc3N)cnn2C)CCC1N` (centres unmarked) [Example 325, 5-amino-N-[5-(4-amino-5-methoxy-azepan-1-yl)-1-methyl-pyrazol-4-yl]-2-(2-fluoro-5-methyl-phenyl)thiazole-4-carboxamide] were, in that order, 0.153 nM, 16600 nM, 191 nM and 752 nM.
Taken in the same sequence, the figures for `Cn1ncc(NC(=O)c2nc(-c3c(F)cncc3F)sc2N)c1N1CC[C@H](N)CC(F)(F)C1` (single isomer, unassigned) [Example 454] were 0.023 nM, 17900 nM, 2.17 nM and 3700 nM.
The like results for `Cc1nn(C)cc1-c1nc(C(=O)Nc2cnn(C)c2N2CC[C@@H](N)CC(F)(F)C2)c(N)s1` [Example 462, 5-amino-N-[5-[(5R)-5-amino-3,3-difluoro-azepan-1-yl]-1-methyl-pyrazol-4-yl]-2-(1,3-dimethylpyrazol-4-yl)thiazole-4-carboxamide] were, in that order, 0.03 nM, 8000 nM, 32.6 nM and 1200 nM.
